{"source": "patent US12454529B2", "about": "“Piperazine cyclic ureas” (SIRONAX LTD., priority 2020, dated 2025)", "data": [{"test_system": "HT-29 cells", "experiment": "HT-29 cell necrosis/necroptosis inhibition (TNF-α + SMAC mimetic + zVAD-FMK; CellTiter-Glo cell viability)", "type": "cell-based", "details": "Homo sapiens, HT-29, 20 h, read-out: EC50 (Cell activity; Necrosis/Necroptosis Inhibitory Activity, Compounds 143-323)", "how_it_was_run": "(§1)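 Necroptosis was driven by TNF-α 10 ng/ml plus SMAC mimetic 6 μM and zVAD-FMK 10 μM in serum-free medium, with compounds as a 10-point threefold titration. After 20 h at 37 °C, ATP-based luminescence was read; EC50 values are geometric means of duplicate curves.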", "units": {"EC50": "nM"}, "values": [{"compound": "Cc1ncc(C#N)n1-c1nc(N2CCN(C(=O)N3N=CC[C@H]3c3cc(F)cc(C#N)c3)CC2)ncc1F", "note": "[Compound 148, 1-(2-(4-((S)-5-(3-cyano-5-fluorophenyl)-4,5-dihydro-1H-pyrazole-1-carbonyl)piperazin-1-yl)-5-fluoropyrimidin-4-yl)-2-methyl-1H-imidazole-5-carbonitrile]", "EC50": "0.1 to 100"}, {"compound": "CC(=O)N1Cc2c(-c3nc(N4CCN(C(=O)N5N=CC[C@H]5c5cc(F)cc(C#N)c5)CC4)ncc3F)nn(C)c2C1", "note": "[Compound 152, (S)-3-(1-(4-(4-(5-acetyl-1-methyl-1,4,5,6-tetrahydropyrrolo[3,4-c]pyrazol-3-yl)-5-fluoropyrimidin-2-yl)piperazine-1-carbonyl)-4,5-dihydro-1H-pyrazol-5-yl)-5-fluorobenzonitrile]", "EC50": "1000 to 10000"}]}, {"test_system": "HT-29 cells", "experiment": "HT-29 cell necrosis/necroptosis inhibition (TNF-α + SMAC mimetic + zVAD-FMK; CellTiter-Glo cell viability)", "type": "cell-based", "details": "Homo sapiens; HT-29 cells, TNF-α 10 ng/ml + SMAC mimetic 6 μM + zVAD-FMK 10 μM, 20 hours; geometric mean, 10 points in duplicate; read-out: EC50 (Cell activity; Necrosis/Necroptosis Inhibitory Activity, Compounds 1-142)", "how_it_was_run": "as §1", "units": {"EC50": "nM"}, "values": [{"compound": "N#Cc1cc(F)cc([C@@H]2CC=NN2C(=O)N2CCN(c3ncc(F)c(-n4cc(C(N)=O)cn4)n3)CC2)c1", "note": "[Compound 107, (S)-1-(2-(4-(5-(3-cyano-5-fluorophenyl)-4,5-dihydro-1H-pyrazole-1-carbonyl)piperazin-1-yl)-5-fluoropyrimidin-4-yl)-1H-pyrazole-4-carboxamide]", "EC50": "0.1 to 100"}, {"compound": "Cc1nn(CC(N)=O)c(C)c1-c1nc(N2CCN(C(=O)N3N=CC[C@H]3c3cc(F)cc(F)c3)CC2)ncc1F", "note": "[Compound 119, (S)-2-(4-(2-(4-(5-(3,5-difluorophenyl)-4,5-dihydro-1H-pyrazole-1-carbonyl)piperazin-1-yl)-5-fluoropyrimidin-4-yl)-3,5-dimethyl-1H-pyrazol-1-yl)acetamide]", "EC50": "0.1 to 100"}, {"compound": "O=C(N1CCN(c2ncc(F)c(-c3[nH]nnc3C(F)(F)F)n2)CC1)N1N=CC[C@H]1c1cc(F)cc(F)c1", "note": "[Compound 105, (S)-(5-(3,5-difluorophenyl)-4,5-dihydro-1H-pyrazol-1-yl)(4-(5-fluoro-4-(4-(trifluoromethyl)-1H-1,2,3-triazol-5-yl)pyrimidin-2-yl)piperazinyl)methanone]", "EC50": "0.1 to 100"}, {"compound": "Cc1c(-c2nc(N3CCN(C(=O)N4N=CC[C@H]4c4cc(F)cc(F)c4)CC3)ncc2F)nnn1CC(N)=O", "note": "[Compound 31, (S)-2-(4-(2-(4-(5-(3,5-difluorophenyl)-4,5-dihydro-1H-pyrazole-1-carbonyl)piperazin-1-yl)-5-fluoropyrimidin-4-yl)-5-methyl-1H-1,2,3-triazol-1-yl)acetamide]", "EC50": "0.1 to 100"}, {"compound": "Cc1noc(C)c1-c1nc(N2CCN(C(=O)N3N=CC[C@H]3c3cc(F)cc(F)c3)CC2)ncc1F", "note": "[Compound 108, (S)-(5-(3,5-difluorophenyl)-4,5-dihydro-1H-pyrazol-1-yl)(4-(4-(3,5-dimethylisoxazol-4-yl)-5-fluoropyrimidin-2-yl)piperazin-1-yl)methanone]", "EC50": "0.1 to 100"}, {"compound": "Cc1nn(CC(N)=O)c(C)c1-c1nc(N2CCN(C(=O)N3N=CC[C@H]3c3cc(F)cc(C#N)c3)CC2)ncc1F", "note": "[Compound 123, (S)-2-(4-(2-(4-(5-(3-cyano-5-fluorophenyl)-4,5-dihydro-1H-pyrazole-1-carbonyl)piperazin-1-yl)-5-fluoropyrimidin-4-yl)-3,5-dimethyl-1H-pyrazol-1-yl)acetamide]", "EC50": "0.1 to 100"}, {"compound": "O=C(O)c1c[nH]c(-c2nc(N3CCN(C(=O)N4N=CC[C@H]4c4cc(F)cc(F)c4)CC3)ncc2F)c1", "note": "[Compound 21, (S)-5-(2-(4-(5-(3,5-difluorophenyl)-4,5-dihydro-1H-pyrazole-1-carbonyl)piperazin-1-yl)-5-fluoropyrimidin-4-yl)-1H-pyrrole-3-carboxylic acid]", "EC50": "0.1 to 100"}, {"compound": "Cc1nn(CC(N)=O)nc1-c1nc(N2CCN(C(=O)N3N=CC[C@H]3c3cc(F)cc(F)c3)CC2)ncc1F", "note": "[Compound 32, (S)-2-(4-(2-(4-(5-(3,5-difluorophenyl)-4,5-dihydro-1H-pyrazole-1-carbonyl)piperazin-1-yl)-5-fluoropyrimidin-4-yl)-5-methyl-2H-1,2,3-triazol-2-yl)acetamide]", "EC50": "0.1 to 100"}, {"compound": "Cn1c(-c2nc(N3CCN(C(=O)N4N=CC[C@H]4c4cc(F)cc(C#N)c4)CC3)ncc2F)cc(=O)n(C)c1=O", "note": "[Compound 51, (S)-3-fluoro-5-(1-(4-(5-fluoro-1′,3′-dimethyl-2′,6′-dioxo-1′,2′,3′,6′-tetrahydro-[4,4′-bipyrimidin]-2-yl)piperazine-1-carbonyl)-4,5-dihydro-1H-pyrazol-5-yl)benzonitrile]", "EC50": "0.1 to 100"}, {"compound": "N#Cc1cc(F)cc([C@@H]2CC=NN2C(=O)N2CCN(c3ncc(F)c(-c4ccn(CC(N)=O)n4)n3)CC2)c1", "note": "[Compound 76, (S)-2-(3-(2-(4-(5-(3-cyano-5-fluorophenyl)-4,5-dihydro-1H-pyrazole-1-carbonyl)piperazin-1-yl)-5-fluoropyrimidin-4-yl)-1H-pyrazol-1-yl)acetamide]", "EC50": "0.1 to 100"}, {"compound": "Cn1ncc(-c2nc(N3CCN(C(=O)N4N=CC[C@H]4c4cc(F)cc(C#N)c4)CC3)ncc2F)n1", "note": "[Compound 42]", "EC50": "0.1 to 100"}]}, {"test_system": "HT-29 cells", "experiment": "HT-29 cell necrosis/necroptosis inhibition (TNF-α + SMAC mimetic + zVAD-FMK; CellTiter-Glo cell viability)", "type": "cell-based", "details": "Homo sapiens; HT-29 cells, TNF-α 10 ng/ml + SMAC mimetic 6 μM + zVAD-FMK 10 μM, 20 hours; geometric mean, 10 points in duplicate; read-out: EC50 (Cell activity; Necrosis/Necroptosis Inhibitory Activity, Compounds 143-323)", "how_it_was_run": "as §1", "units": {"EC50": "nM"}, "values": [{"compound": "Cc1nc(C)n(-c2ncc(F)c(N3CCN(C(=O)N4N=CCC4c4ncccc4Cl)CC3)n2)n1", "note": "(centres unmarked) [Compound 263, (5-(3-chloropyridin-2-yl)-4,5-dihydro-1H-pyrazol-1-yl)(4-(2-(3,5-dimethyl-1H-1,2,4-triazol-1-yl)-5-fluoropyrimidin-4-yl)piperazin-1-yl)methanone]", "EC50": "100 to 1000"}, {"compound": "Cc1nn(-c2cc(N3CCN(C(=O)N4N=CC[C@H]4c4cc(F)cc(C#N)c4)CC3)ncn2)c(C)c1C(N)=O", "note": "[Compound 282, (S)-1-(6-(4-(5-(3-cyano-5-fluorophenyl)-4,5-dihydro-1H-pyrazole-1-carbonyl)piperazin-1-yl)pyrimidin-4-yl)-3,5-dimethyl-1H-pyrazole-4-carboxamide]", "EC50": "0.1 to 100"}, {"compound": "Cc1nn(-c2ccnc(N3CCN(C(=O)N4N=CC[C@H]4c4cc(F)cc(C#N)c4)CC3)n2)c(C)c1Cl", "note": "[Compound 288, (S)-3-(1-(4-(4-(4-chloro-3,5-dimethyl-1H-pyrazol-1-yl)pyrimidin-2-yl)piperazine-1-carbonyl)-4,5-dihydro-1H-pyrazol-5-yl)-5-fluorobenzonitrile]", "EC50": "0.1 to 100"}, {"compound": "Cc1nc(C)n(-c2ncc(F)c(N3CCN(C(=O)N4N=CC[C@H]4c4cc(F)cc(C#N)c4)CC3)n2)n1", "note": "[Compound 258, (S)-3-(1-(4-(2-(3,5-dimethyl-1H-1,2,4-triazol-1-yl)-5-fluoropyrimidin-4-yl)piperazine-1-carbonyl)-4,5-dihydro-1H-pyrazol-5-yl)-5-fluorobenzonitrile]", "EC50": "0.1 to 100"}, {"compound": "O=C(N1CCN(c2ncc(F)c(-n3cnc(C(F)(F)F)n3)n2)CC1)N1N=CC[C@H]1c1cccc(F)c1", "note": "[Compound 313, (S)-(4-(5-fluoro-4-(3-(trifluoromethyl)-1H-1,2,4-triazol-1-yl)pyrimidin-2-yl)piperazin-1-yl)(5-(3-fluorophenyl)-4,5-dihydro-1H-pyrazol-1-yl)methanone]", "EC50": "0.1 to 100"}, {"compound": "Cc1nc(C#N)nn1-c1nc(N2CCN(C(=O)N3N=CC[C@H]3c3cc(F)cc(F)c3)CC2)ncc1F", "note": "[Compound 254, (S)-1-(2-(4-(5-(3,5-difluorophenyl)-4,5-dihydro-1H-pyrazole-1-carbonyl)piperazin-1-yl)-5-fluoropyrimidin-4-yl)-5-methyl-1H-1,2,4-triazole-3-carbonitrile]", "EC50": "0.1 to 100"}, {"compound": "Cc1nc(C)n(-c2nc(N3CCN(C(=O)N4N=CC[C@@H]4c4ncc(C)s4)CC3)ncc2F)n1", "note": "[Compound 242, (R)-(4-(4-(3,5-dimethyl-1H-1,2,4-triazol-1-yl)-5-fluoropyrimidinyl)piperazin-1-yl)(5-(5-methylthiazol-2-yl)-4,5-dihydro-1H-pyrazol-1-yl)methanone]", "EC50": "0.1 to 100"}, {"compound": "Cc1cnc([C@@H]2CC=NN2C(=O)N2CCN(c3ncc(F)c(-c4ncnn4C)n3)CC2)s1", "note": "[Compound 318, (S)-(4-(5-fluoro-4-(1-methyl-1H-1,2,4-triazol-5-yl)pyrimidin-2-yl)piperazin-1-yl)(5-(5-methylthiazol-2-yl)-4,5-dihydro-1H-pyrazol-1-yl)methanone]", "EC50": "0.1 to 100"}, {"compound": "Cc1nc(C(F)(F)F)nn1-c1ccnc(N2CCN(C(=O)N3N=CC[C@H]3c3cc(F)cc(C#N)c3)CC2)n1", "note": "[Compound 147, (S)-3-fluoro-5-(1-(4-(4-(5-methyl-3-(trifluoromethyl)-1H-1,2,4-triazol-1-yl)pyrimidin-2-yl)piperazine-1-carbonyl)-4,5-dihydro-1H-pyrazol-5-yl)benzonitrile]", "EC50": "0.1 to 100"}, {"compound": "Cc1nc(C)n(-c2cc(N3CCN(C(=O)N4N=CC[C@H]4c4cc(F)cc(F)c4)CC3)c(F)cn2)n1", "note": "[Compound 271, (S)-(5-(3,5-difluorophenyl)-4,5-dihydro-1H-pyrazol-1-yl)(4-(2-(3,5-dimethyl-1H-1,2,4-triazol-1-yl)-5-fluoropyridin-4-yl)piperazin-1-yl)methanone]", "EC50": "0.1 to 100"}, {"compound": "Cc1nc(C)n(-c2nc(N3CCN(C(=O)N4N=CCC4c4cc(C#N)cc(F)c4F)CC3)ncc2F)n1", "note": "(centres unmarked) [Compound 238, 3-(1-(4-(4-(3,5-dimethyl-1H-1,2,4-triazol-1-yl)-5-fluoropyrimidin-2-yl)piperazine-1-carbonyl)-4,5-dihydro-1H-pyrazol-5-yl)-4,5-difluorobenzonitrile]", "EC50": "0.1 to 100"}, {"compound": "Cc1nc(C)n(-c2nccc(N3CCN(C(=O)N4N=CC[C@H]4c4cc(F)cc(C#N)c4)CC3)n2)n1", "note": "[Compound 244, (S)-3-(1-(4-(2-(3,5-dimethyl-1H-1,2,4-triazol-1-yl)pyrimidin-4-yl)piperazine-1-carbonyl)-4,5-dihydro-1H-pyrazol-5-yl)-5-fluorobenzonitrile]", "EC50": "0.1 to 100"}, {"compound": "Cn1nc(C(=O)O)nc1-c1nc(N2CCN(C(=O)N3N=CCC3c3cc(F)cc(F)c3)CC2)ncc1F", "note": "(centres unmarked) [Compound 230, 5-(2-(4-(5-(3,5-difluorophenyl)-4,5-dihydro-1H-pyrazole-1-carbonyl)piperazin-1-yl)-5-fluoropyrimidin-4-yl)-1-methyl-1H-1,2,4-triazole-3-carboxylic acid]", "EC50": "100 to 1000"}]}]}
